Reference: patent US20030129629A1, “Methods and compositions for the identification, assessment, prevention, and therapy of human cancers” (Millennium Pharmaceuticals, Inc., priority 2000, published 2003)
Read-outs that look alike come from different tables or passages of the source.

Columns and labels:
tumor = conditions: animal models; cited from earlier work
[1] = tested on: 60 cancer cell lines (NCI 60 cancer cell line series); experiment: NCI-DTP in vitro cancer screen, sulforhodamine B (SRB) growth inhibition, 48 hour exposure; type: cell-based, human
How it was run: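 Potency is given as mean −log{GI50} from dose–response curves, manually binned into Low, Medium or High sensitivity. Sixty NCI-DTP tumour lines were treated 48 h with a duplicate, five-dose, ten-fold dilution series, and growth read by SRB staining of cell mass.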

[2] = tested on: 60 cancer cell lines (NCI 60 cancer cell line series); conditions: cited from earlier work

In the case of `CC(=O)O[C@@]12CO[C@@H]1C[C@H](O)[C@@]1(C)C(=O)[C@H](O)C3=C(C)[C@@H](OC(=O)[C@H](O)[C@@H](NC(=O)OC(C)(C)C)c4ccccc4)C[C@@](O)([C@@H](OC(=O)c4ccccc4)[C@H]21)C3(C)C` [Taxotere, docetaxel], the anti-tumor activity (tumor) is listed as “good anti-tumor activity”.

With `COc1cc([C@@H]2c3cc4c(cc3[C@@H](O[C@@H]3O[C@@H]5CO[C@@H](C)O[C@H]5[C@H](O)[C@H]3O)[C@H]3COC(=O)[C@H]23)OCO4)cc(OC)c1O` [Etoposide] the “classification of cell line as Low(1), Medium(2), High(3) sensitivity to compound” value (shortened to “classification of cell line”) ([1]; Breast BT-549 CL5013) was 2, the “classification of cell line” value ([1]; Breast HS-578T CL5006) was 3 and the “classification of cell line” value ([1]; Breast MCF7(I) CL5001) was 2. The “classification of cell line” value ([1]; Breast MCF7/ADRr CL5002) was 1, the “classification of cell line” value ([1]; Breast MDA-MB-231 CL5005) was 2 and the “classification of cell line” value ([1]; Breast MDA-MB-435 CL5011) was 2. The “classification of cell line” value ([1]; Breast MDA-N CL5012) was 3, the “classification of cell line” value ([1]; Breast T-47D CL5014) was 3 and the “classification of cell line” value ([1]; CNS SF-268 CL12014) was 2. For the same compound, the “classification of cell line” value ([1]; CNS SF-295 CL12015) was 2, the “classification of cell line” value ([1]; CNS SF-539 CL12016) was 2 and the “classification of cell line” value ([1]; CNS SNB-19 CL12002) was 2. The “classification of cell line” value ([1]; CNS SNB-75(I) CL12005) was 2, the “classification of cell line” value ([1]; CNS U251(I) CL12009) was 2 and the “classification of cell line” value ([1]; Colon COLO-250 CL4010) was 1. For the same compound, the “classification of cell line” value ([1]; Colon HCC-2998 CL4002) was 2, the “classification of cell line” value ([1]; Colon HCT-15 CL4015) was 2 and the “classification of cell line” value ([1]; Colon HCT-116 CL4003) was 2. The “classification of cell line” value ([1]; Colon HT29(I) CL4001) was 1, the “classification of cell line” value ([1]; Colon KM12 CL4017) was 2 and the “classification of cell line” value ([1]; Colon SW-620 CL4009) was 2. The “classification of cell line” value ([1]; Leukemia CCRF-CEM(I) CL7003) was 2, the “classification of cell line” value ([1]; Leukemia HL-60(I) CL7008) was 2 and the “classification of cell line” value ([1]; Leukemia K562(I) CL7005) was 2. The “classification of cell line” value ([1]; Leukemia MOLT-4 CL7006) was 3, the “classification of cell line” value ([1]; Leukemia RPMI-8226(I) CL7010) was 2 and the “classification of cell line” value ([1]; Leukemia SR CL7019) was 3. For the same compound, the “classification of cell line” value ([1]; Melanoma LOX IMVI CL10001) was 2, the “classification of cell line” value ([1]; Melanoma M14 CL10014) was 3 and the “classification of cell line” value ([1]; Melanoma MALME-3M CL10002) was 2. For the same compound, the “classification of cell line” value ([1]; Melanoma SK-MEL-2 CL10005) was 2, the “classification of cell line” value ([1]; Melanoma SK-MEL-28 CL10008) was 1 and the “sensitivity classification Low(1)/Medium(2)/High(3)” value ([1]; NSCLC NCI-H23(I) CL1001) was 2. The “sensitivity classification Low(1)/Medium(2)/High(3)” value ([1]; NSCLC NCI-H332M CL1017) was 1, the “sensitivity classification Low(1)/Medium(2)/High(3)” value ([1]; NSCLC NCI-H460 CL1021) was 3 and the “sensitivity classification Low(1)/Medium(2)/High(3)” value ([1]; NSCLC NCI-H522 CL1003) was 2. The “sensitivity classification Low(1)/Medium(2)/High(3)” value ([1]; Ovarian IGROV1 CL6010) was 1, the “sensitivity classification Low(1)/Medium(2)/High(3)” value ([1]; Ovarian OVCAR-3 CL6001) was 1 and the “sensitivity classification Low(1)/Medium(2)/High(3)” value ([1]; Ovarian OVCAR-4 CL6002) was 1. For the same compound, the “sensitivity classification Low(1)/Medium(2)/High(3)” value ([1]; Ovarian OVCAR-5 CL6003) was 1, the “sensitivity classification Low(1)/Medium(2)/High(3)” value ([1]; Ovarian OVCAR-8 CL6005) was 2 and the “sensitivity classification Low(1)/Medium(2)/High(3)” value ([1]; Ovarian SK-OV-3 CL6011) was 2. For the same compound, the “sensitivity classification Low(1)/Medium(2)/High(3)” value ([1]; Prostate DU-145 CL11003) was 3, the “sensitivity classification Low(1)/Medium(2)/High(3)” value ([1]; Prostate PC-3(I) CL11001) was 3 and the “sensitivity classification Low(1)/Medium(2)/High(3)” value ([1]; Renal 786-0 CL9018) was 2. The “sensitivity classification Low(1)/Medium(2)/High(3)” value ([1]; Renal A498 CL9013) was 2, the “sensitivity classification Low(1)/Medium(2)/High(3)” value ([1]; Renal ACHN CL9023) was 3 and the “sensitivity classification Low(1)/Medium(2)/High(3)” value ([1]; Renal CAKI-1 CL9015) was 2. The “sensitivity classification Low(1)/Medium(2)/High(3)” value ([1]; Renal RXF-393 CL9016) was 2, the “sensitivity classification Low(1)/Medium(2)/High(3)” value ([1]; Renal SN12C CL9008) was 2 and the “sensitivity classification Low(1)/Medium(2)/High(3)” value ([1]; Renal TK10 CL9024) was 2. For the same compound, the “sensitivity classification Low(1)/Medium(2)/High(3)” value ([1]; Renal UO-31 CL9004) was 1, the “−Log (GI50)” value ([2]; Melanoma SK-MEL-2 CL10005) was 4.5 and the “−Log (GI50)” value ([2]; Melanoma SK-MEL-5 CL10007) was 5.0. The “−Log (GI50)” value ([2]; Melanoma SK-MEL-28 CL10008) was 4.4, the “−Log (GI50)” value ([2]; Melanoma UACC-62 CL10020) was 4.9 and the “−Log (GI50)” value ([2]; Melanoma UACC-257 CL10021) was 4.2. The “−Log (GI50)” value ([2]; NSCLC A549/ATCC CL1004) was 5.2, the “−Log (GI50)” value ([2]; NSCLC EKVX CL1008) was 4.4 and the “−Log (GI50)” value ([2]; NSCLC HOP-62 CL1026) was 5.5. For the same compound, the “−Log (GI50)” value ([2]; NSCLC HOP-92 CL1029) was 4.8 and the “−Log (GI50)” value ([2]; NSCLC NCI-H226 CL1013) was 5.2.

For `CN(Cc1cnc2nc(N)nc(N)c2n1)c1ccc(C(=O)N[C@@H](CCC(=O)O)C(=O)O)cc1` [Methotrexate], the “classification of cell line” value ([1]; Breast BT-549 CL5013) was 1, the “classification of cell line” value ([1]; Breast HS-578T CL5006) was 1 and the “classification of cell line” value ([1]; Breast MDA-MB-231 CL5005) was 1. For the same compound, the “classification of cell line” value ([1]; Breast T-47D CL5014) was 1, the “classification of cell line” value ([1]; CNS SF-268 CL12014) was 2 and the “classification of cell line” value ([1]; CNS SF-295 CL12015) was 3. The “classification of cell line” value ([1]; CNS SF-539 CL12016) was 3, the “classification of cell line” value ([1]; CNS U251(I) CL12009) was 2 and the “classification of cell line” value ([1]; Colon COLO-250 CL4010) was 2. For the same compound, the “classification of cell line” value ([1]; Colon HCC-2998 CL4002) was 2, the “classification of cell line” value ([1]; Colon HCT-15 CL4015) was 3 and the “classification of cell line” value ([1]; Colon HCT-116 CL4003) was 3. For the same compound, the “classification of cell line” value ([1]; Colon KM12 CL4017) was 2, the “classification of cell line” value ([1]; Leukemia HL-60(I) CL7008) was 2 and the “classification of cell line” value ([1]; Leukemia K562(I) CL7005) was 3. The “classification of cell line” value ([1]; Leukemia RPMI-8226(I) CL7010) was 2, the “classification of cell line” value ([1]; Leukemia SR CL7019) was 3 and the “classification of cell line” value ([1]; Melanoma LOX IMVI CL10001) was 3. The “classification of cell line” value ([1]; Melanoma SK-MEL-2 CL10005) was 1, the “classification of cell line” value ([1]; Melanoma SK-MEL-5 CL10007) was 2 and the “classification of cell line” value ([1]; Melanoma SK-MEL-28 CL10008) was 1. For the same compound, the “classification of cell line” value ([1]; Melanoma UACC-62 CL10020) was 3, the “classification of cell line” value ([1]; NSCLC A549/ATCC CL1004) was 3 and the “classification of cell line” value ([1]; NSCLC EKVX CL1008) was 1. The “classification of cell line” value ([1]; NSCLC HOP-62 CL1026) was 2, the “classification of cell line” value ([1]; NSCLC HOP-92 CL1029) was 1 and the “sensitivity classification Low(1)/Medium(2)/High(3)” value ([1]; NSCLC NCI-H23(I) CL1001) was 2. The “classification of cell line” value ([1]; NSCLC NCI-H226 CL1013) was 1, the “sensitivity classification Low(1)/Medium(2)/High(3)” value ([1]; NSCLC NCI-H332M CL1017) was 2 and the “sensitivity classification Low(1)/Medium(2)/High(3)” value ([1]; NSCLC NCI-H460 CL1021) was 3. For the same compound, the “sensitivity classification Low(1)/Medium(2)/High(3)” value ([1]; Ovarian IGROV1 CL6010) was 2, the “sensitivity classification Low(1)/Medium(2)/High(3)” value ([1]; Ovarian OVCAR-3 CL6001) was 2 and the “sensitivity classification Low(1)/Medium(2)/High(3)” value ([1]; Ovarian OVCAR-4 CL6002) was 1. The “sensitivity classification Low(1)/Medium(2)/High(3)” value ([1]; Ovarian OVCAR-5 CL6003) was 2, the “sensitivity classification Low(1)/Medium(2)/High(3)” value ([1]; Prostate DU-145 CL11003) was 2 and the “sensitivity classification Low(1)/Medium(2)/High(3)” value ([1]; Renal A498 CL9013) was 1. The “sensitivity classification Low(1)/Medium(2)/High(3)” value ([1]; Renal ACHN CL9023) was 2, the “sensitivity classification Low(1)/Medium(2)/High(3)” value ([1]; Renal RXF-393 CL9016) was 1 and the “sensitivity classification Low(1)/Medium(2)/High(3)” value ([1]; Renal SN12C CL9008) was 3. The “sensitivity classification Low(1)/Medium(2)/High(3)” value ([1]; Renal TK10 CL9024) was 1, the “sensitivity classification Low(1)/Medium(2)/High(3)” value ([1]; Renal UO-31 CL9004) was 2 and the “−Log (GI50)” value ([2]; Leukemia HL-60(I) CL7008) was 7.4. For the same compound, the “−Log (GI50)” value ([2]; Melanoma M14 CL10014) was 7.5, the “−Log (GI50)” value ([2]; NSCLC EKVX CL1008) was 5.0 and the “−Log (GI50)” value ([2]; NSCLC HOP-92 CL1029) was 5.1. The “−Log (GI50)” value ([2]; Renal 786-0 CL9018) was 7.5.
